In brackets after ≈: the same amount, converted by molar mass. Counter-ions that a name gives are not always drawn.
Assays:
[1] = target: T1, PRX3 (Homo sapiens, UniProt P30048); test: Crosslinking study: PRX3 western blot of H-MESO cell lysates; assay type: cell-based; settings: H-MESO cells treated 24 hours; TS at 2.5 or 5 μM; reducing SDS-PAGE, PRX3 western blot (FIG. 3)
T1 construct: endogenous in cells; host or cells: H-MESO malignant mesothelioma cells
T1 sequence (P30048 62-256): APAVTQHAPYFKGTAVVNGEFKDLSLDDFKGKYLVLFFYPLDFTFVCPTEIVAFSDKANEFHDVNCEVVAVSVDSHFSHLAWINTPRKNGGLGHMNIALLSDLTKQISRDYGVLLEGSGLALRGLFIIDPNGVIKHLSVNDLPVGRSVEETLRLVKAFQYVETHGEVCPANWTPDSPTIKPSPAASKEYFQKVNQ
Procedure: Malignant Mesothelioma (MM) cells (H-MESO cell line) were plated into 6-well plates in complete tissue culture media. Cells were allowed to adhere for 24 hours before being treated with indicated concentrations of thiostrepton (TS), (1) or (5) (DMSO Stocks) for 24 hours. Cell lysates were generated using standard RIPA buffer, protein concentrations were determined using a Bradford Assay and 20 μg of total protein per sample were separated by reducing SDS-Polyacrylamide Gel Electrophoresis. Proteins were transferred to a PVDF membrane, blocked with 5% Bovine Serum Albumin (BSA) for 1 hour and incubated with PRX3 primary antibody overnight at 4° C. in IX Tris Buffered Saline with Tween (TBST). Membranes were washed 3X with IX TBST and incubated with horseradish peroxidase conjugated (HRP) secondary antibody for 1 hour at room temperature. Membranes were washed 3x in IX TBST and HRP signal was developed using Enhanced Chemiluminescence and visualized on a GE digital imager.

[2] = test system: HMESO mesothelioma cells; test: Cell viability study (crystal violet, 48 h); assay type: cell-based; settings: Homo sapiens, 48 h incubation, read-out: IC50 (Concentration of drug required to kill 50% of cells)
Procedure: Cell Lines were plated in 96-well plates (Corning, Kennebunk, ME, USA) at a density of 2500 cells per well. The following day, cells were treated with test compounds diluted in complete media followed by incubation for 48 h. Post-incubation cells were washed with PBS (Corning Cellgro, Manassas, VA, USA), fixed with 3.0% formaldehyde (Fisher BioReagents, Fair Lawn, NJ, USA) in PBS, and stained for 30 min with 0.1% crystal violet (Acros Organics, Fair Lawn, NJ, USA) in water. Crystal violet stain was removed, and plates were washed with FEO and allowed to dry. To quantify cell viability, plates were imaged using the Lionheart Plate reader (BioTek Instruments, Winooski, VT, USA) and/or analyzed by absorbance at 540 nm (crystal violet dye dissolved in 100% methanol) using the Synergy HTX plate reader (BioTek Instruments, Winooski, VT, USA). To determine the effective cytotoxic concentration (ICso) of test compounds, the data were plotted using a 4-parameter non-linear regression model using GraphPad Prism7 software (GraphPad Software, San Diego, CA, USA).
Cell viability assay data in HMESO mesothelioma cells treated with compounds (1)—HCl or (5) HCl are summarized in the below Table 2. ICso (Concentration of drug required to kill 50% f cells) is shown in […] concentration

[3] = test system: human SK—OV-3 ovarian cancer cells; test: Cellular Activity Assay (cytotoxicity, crystal violet); assay type: cell-based; settings: Homo sapiens; SK—OV-3 cells, treated for 48 hr, 0.1-100 μM, crystal violet absorbance at 540 nm
How it was run: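 SK-OV-3 cells plated, allowed 24 h recovery, then treated 48 hr with compound at 0.1-100 μM. Live cells were fixed (3.0% formaldehyde), stained with 0.1% crystal violet and read at 540 nm. EC50 was fitted after normalizing to matched-DMSO controls.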

[4] = target: T2, purified human PRX3 (Homo sapiens, UniProt P30048); test: Biochemical PRX3 Inhibition Assay (non-reducible crosslink by SDS PAGE + single adduct by MALDI-TOF MS); settings: 100 μM PRX3 with TRX2/thioredoxin reductase/NADPH system and hydrogen peroxide, 1-2 hr at 37° C.
T2 construct: made in house
T2 sequence (P30048 62-256): T1 sequence (P30048 62-256)
How it was run: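 Purified human PRX3 (100 µM) cycled with TRX2, thioredoxin reductase, NADPH regenerating system and H2O2, incubated with compound 1–2 h at 37 °C. Non-reducible crosslink quantified by densitometry of SDS-PAGE (~46 vs ~23 kDa) after DTT; single-adduct fraction from MALDI-TOF MS peak intensities, background-corrected against DMSO.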

[5] = Solubility Assay (HPLC); assay type: physicochemical; settings: HEPES/NaCl buffer, aqueous with cosolvent or surfactant or cyclodextrin, kinetic from dmso stock; 20 mM HEPES, 100 mM NaCl, pH 7.5, 18-24 hours at ambient temperature; read-out: Solubility
How it was run: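 Compound from 20 mM DMSO stock added to 20 mM HEPES, 100 mM NaCl, pH 7.5, rotated 18-24 h at ambient temperature, then centrifuged 10 min at 20,000×g to remove solids. Supernatant diluted in DMSO and quantified by HPLC peak area against the closest of 200 μM and 20 μM standards, corrected for dilution.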

[6] = test system: Enterococcus hirae (ATCC #10541); test: Antimicrobial Activity Assay (MIC / growth inhibition); assay type: cell-based; settings: ATCC10541; Enterococcus hirae; analogs tested at 20 μM final concentration
Procedure: The overnight growth was then diluted into growth media to make a single solution of E. hirae with a final optical density at 600 nm=0.02 AU. A 20 mM stock solution of Thiostrepton in DMSO was made and used to make multiple dilutions of TS in DMSO. Each TS dilution (0.1 mL) was then added to a test tube containing 10 mL of the diluted E. hirae and grown at 37° C. overnight while shaking at 180 rpm. The next morning, each tube was visually inspected to determine if the cells grew. Final concentrations tested were 0.120, 0.090, 0.075, 0.060, 0.045, 0.030, and 0.015 μM TS. […] Three replicates were made on three separate days (n=9). […] For TS analogs, the dilute E. hirae was treated with 20 μM final concentration of each analog (three replicates each). […] DMSO was used as a positive control (complete cell growth) and 20 μM thiostrepton was used as a negative control.

Structure (SMILES)	Covalent PRX3 crosslinking (PRX3-X-PRX3) [1]	IC50 [2]	EC50 [3]	PRX3 Inhibition (Crosslink + Mono-adduct) [4]	solubility [5]	MIC [6]
C=C(NC(=O)C(=C)NC(=O)c1csc(-c2ccc(N)cc2)n1)C(N)=O [(1), N-(3-((3-amino-3-oxoprop-1-en-2-yl)amino)-3-oxoprop-1-en-2-yl)-2-(4-aminophenyl)thiazole-4-carboxamide]	No PRX3 —X —PRX3 crosslinking was observed					
C=C(NC(=O)C(=C)NC(=O)c1csc(-c2ccc(N)cc2)n1)C(N)=O [(1)-HC1, N-(3-((3-amino-3-oxoprop-1-en-2-yl)amino)-3-oxoprop-1-en-2-yl)-2-(4-aminophenyl)thiazole-4-carboxamide hydrochloride]		748 µM				
C=C(NC(=O)c1csc(-c2ccc(N)cc2)n1)C(=O)NC(=C)C(=O)OC [(5), Methyl 2-(2-(2-(4-aminophenyl)thiazole-4-carboxamido)acrylamido)acrylate]	Similar, yet less robust					
C=C(NC(=O)c1csc(N2CCC(CNC(=O)OCC)CC2)n1)C(=O)NC(=C)C(=O)OC [Compound 22, Methyl 2-(2-(2-(4-(((ethoxycarbonyl)amino)methyl)piperidin-1-yl)thiazole-4-carboxamido)acrylamido)acrylate]			1 to 10 µM	+++ (>90%)	< 100 µM	> 20 µM
C=C(NC(=O)c1csc(N2CC[C@@H](NC(=O)OCC)C2)n1)C(=O)NC(=C)C(=O)OC [Compound 23, Methyl (R)-2-(2-(2-(3-((ethoxycarbonyl)amino)pyrrolidin-1-yl)thiazole-4-carboxamido)acrylamido)acrylate]			1 to 10 µM	+++ (>90%)	< 100 µM	> 20 µM
C=C(NC(=O)c1csc(-c2ccc(OCCOC)cc2)n1)C(=O)NC(=C)C(=O)OC [Compound 24, Methyl 2-(2-(2-(4-(2-methoxyethoxy)phenyl)thiazole-4-carboxamido)acrylamido)acrylate]			1 to 10 µM	++ (50-90%)	< 100 µM	> 20 µM
C=C(NC(=O)c1csc(-c2ccc(NC(=O)CCCCCN=[N+]=[N-])cc2)n1)C(=O)NC(=C)C(=O)OC [Compound 25, Methyl 2-(2-(2-(4-(6-azidohexanamido)phenyl)thiazole-4-carboxamido)acrylamido)acrylate]			10 to 25 µM	++ (50-90%)	< 100 µM	> 20 µM
C=C(NC(=O)c1csc(-c2ccc(CNC(=O)OCCOC)cc2)n1)C(=O)NC(=C)C(=O)OC [Compound 26, Methyl 2-(2-(2-(4-((((2-methoxyethoxy)carbonyl)amino)methyl)phenyl)thiazole-4-carboxamido)acrylamido)acrylate]			1 to 10 µM	++ (50-90%)	100 to 1000 µM (≈ 48.9 to 489 µg/mL)	> 20 µM
C=C(NC(=O)c1csc(-c2cccc(COCCOC)c2)n1)C(=O)NC(=C)C(=O)OC [Compound 27, Methyl 2-(2-(2-(3-((2-methoxyethoxy)methyl)phenyl)thiazole-4-carboxamido)acrylamido)acrylate]			1 to 10 µM	+++ (>90%)	< 100 µM	> 20 µM
C=C(NC(=O)c1csc(N2CCCC(C(=O)NCC(C)C)C2)n1)C(=O)NC(=C)C(=O)OC (stereo not shown) [Compound 28, Methyl 2-(2-(2-(3-(isobutylcarbamoyl)piperidin-1-yl)thiazole-4-carboxamido)acrylamido)acrylate]			1 to 10 µM	+++ (>90%)	< 100 µM	> 20 µM
C=C(NC(=O)c1csc(N2CCC(C(=O)NCCCOC(C)C)CC2)n1)C(=O)NC(=C)C(=O)OC [Compound 29, Methyl 2-(2-(2-(4-((3-isopropoxypropyl)carbamoyl)piperidin-1-yl)thiazole-4-carboxamido)acrylamido)acrylate]			1 to 10 µM	+++ (>90%)	100 to 1000 µM (≈ 50.8 to 508 µg/mL)	> 20 µM
C=C(NC(=O)c1csc(-c2ccc(COC(=O)NCc3ccccc3)cc2)n1)C(=O)NC(=C)C(=O)OC [Compound 30, Methyl 2-(2-(2-(4-(((benzylcarbamoyl)oxy)methyl)phenyl)thiazole-4-carboxamido)acrylamido)acrylate]			25 to 100 µM	+ (5-50%)	< 100 µM	> 20 µM
C=C(NC(=O)c1csc(N2CCC[C@@H](NC(=O)OCCOC)C2)n1)C(=O)NC(=C)C(=O)OC [Compound 31, Methyl (R)-2-(2-(2-(3-(((2-methoxyethoxy)carbonyl)amino)piperidin-1-yl)thiazole-4-carboxamido)acrylamido)acrylate]			25 to 100 µM	+ (5-50%)	> 1000 µM	> 20 µM
C=C(NC(=O)c1csc(N2CCC(COC(=O)NCCCOC)CC2)n1)C(=O)NC(=C)C(=O)OC [Compound 32, Methyl 2-(2-(2-(4-((((3-methoxypropyl)carbamoyl)oxy)methyl)piperidin-1-yl)thiazole-4-carboxamido)acrylamido)acrylate]			25 to 100 µM	++ (50-90%)	100 to 1000 µM (≈ 51 to 510 µg/mL)	> 20 µM
C=C(NC(=O)c1csc(N2CCC(NC(=O)OCCOC)CC2)n1)C(=O)NC(=C)C(=O)OC [Compound 33, Methyl 2-(2-(2-(4-(((2-methoxyethoxy)carbonyl)amino)piperidin-1-yl)thiazole-4-carboxamido)acrylamido)acrylate]			25 to 100 µM	+++ (>90%)	> 1000 µM	> 20 µM
C=C(NC(=O)c1csc(N2CCC(NC(=O)COCCOC)CC2)n1)C(=O)NC(=C)C(=O)OC [Compound 34, Methyl 2-(2-(2-(4-(2-(2-methoxyethoxy)acetamido)piperidin-1-yl)thiazole-4-carboxamido)acrylamido)acrylate]			1 to 10 µM	+++ (>90%)	> 1000 µM	> 20 µM

From patent US20250011316A1, “PEROXIREDOXIN 3 INHIBITORS AND METHODS OF USE FOR TREATING CANCER” (Wake Forest University Health Sciences, priority 2022, published 2025)
